Results reported in PubChem BioAssay (NCI).
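Test compounds were applied to cells in 96-well plates for 48 hours at 5 doses. TGI marks complete inhibition of growth.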 *1 amine or outer side, *2 acyl side, *3 side chain or, on linkers, in order; H or OH if unused. Where a SMILES comes first, the peptide text is derived from it. [ ]: non-standard residue; d: D form. The star is where a group is joined. ξ: configuration not given here. NMeY = CN[C@@H](Cc1ccc(O)cc1)C(=O)O; Ethylenediamine = C(CN[*:2])N[*:1]; ξNMeL = CNC(CC(C)C)C(=O)O; Cbz = O=C(OCc1ccccc1)*; Lac = C[C@H](O)C(=O)O; ξA = CC(N)C(=O)O

What was measured:
Assay in all cases: inhibition of tumour cell growth, NCI panel, 48 h
HCT-15 colon = tested on: HCT-15 colon
MDA-MB-435 = tested on: MDA-MB-435
HCC-2998 colon = tested on: HCC-2998 colon
SNB-19 CNS = tested on: SNB-19 CNS
SF-295 CNS = tested on: SF-295 CNS
RXF 393 renal = tested on: RXF 393 renal
UACC-62 melanoma = tested on: UACC-62 melanoma
DU-145 prostate = tested on: DU-145 prostate
MCF7 breast = tested on: MCF7 breast
SW-620 colon = tested on: SW-620 colon
MOLT-4 leukemia = tested on: MOLT-4 leukemia
SF-539 CNS = tested on: SF-539 CNS
SK-MEL-5 melanoma = tested on: SK-MEL-5 melanoma
KM12 colon = tested on: KM12 colon
A549 NSCLC = tested on: A549 NSCLC
EKVX NSCLC = tested on: EKVX NSCLC
CCRF-CEM leukemia = tested on: CCRF-CEM leukemia

SMILES	TGI (HCT-15 colon) [µM]	TGI (MDA-MB-435) [µM]	TGI (HCC-2998 colon) [µM]	TGI (SNB-19 CNS) [µM]	TGI (SF-295 CNS) [µM]	TGI (RXF 393 renal) [µM]	TGI (UACC-62 melanoma) [µM]	TGI (DU-145 prostate) [µM]	TGI (MCF7 breast) [µM]	TGI (SW-620 colon) [µM]	TGI (MOLT-4 leukemia) [µM]	TGI (SF-539 CNS) [µM]	TGI (SK-MEL-5 melanoma) [µM]	TGI (KM12 colon) [µM]	TGI (A549 NSCLC) [µM]	TGI (EKVX NSCLC) [µM]	TGI (CCRF-CEM leukemia) [µM]
CCN(CC)Cc1ccccc1CC(=O)N1c2ccccc2C(=O)Nc2cccnc21	> 100	> 100	> 100	> 100	> 100	> 100	> 100	> 100	> 100	> 100	> 100	> 100	> 100	> 100	> 100	> 100	> 100
O=C1c2c(ccc3c2CCC3)CC1Cc1ccc2c(c1)CCC2 (centres undefined)	> 100	92.4	> 100	> 100	94.3	69.1	42.7	> 100	96.6	> 100	51.6	> 100	27.9	> 100	> 100	> 100	37.8
CC(C)(C)c1cc2c(c(C(C)(C)C)c1O)CC(=O)O2	> 100	66	96.7	> 100	85.7	54.5	77.5	> 100	> 100	> 100	> 100	62.5	32.2	64.6	> 100	> 100	73.5
CCCN(CCC)C(=S)N/N=C(/C)c1ccccc1O	> 93.2	> 100	> 100	> 100	> 100	> 87.1	15.1	> 100	> 43.6	> 100	> 36.9	19.4	> 41.2	> 100	> 100	> 68.9	> 33.9
Cc1c(O)c(OC2OC(CO)C(O)C(O)C2O)cc2c1C=C[C@@H]1[C@@]2(C)C(=O)C[C@]2(C)[C@@H]([C@@](C)(O)C(O)/C=C/C(C)(C)O)[C@H](O)C[C@@]12C (some centres undefined)	> 100	> 100	> 100	> 100	> 100	> 100	> 100	> 100	> 100	> 100	> 100	> 100	> 100	> 100	> 100	> 100	> 100
Cc1cc(S(=O)(=O)Nc2nnc3c4ccccc4cnn23)c(S)cc1Cl	> 100	> 100	> 100	> 88.9	> 100	> 100	> 100	> 100	> 100	> 100	> 100	> 95	> 100	> 100	> 100	> 100	> 100
O=[N+]([O-])c1ccc(-n2nc3ccc4c(no[n+]4[O-])c3[n+]2[O-])c([N+](=O)[O-])c1	7.75	7.39	8.77	16.5	11.9	5.37	7.72	12.6	3.98	5.4	5.81	12.7	7.54	13.1	31.4	26.6	3.68
COc1ccc(C[C@@H](C(=O)NCCNC(=O)C(CC(C)C)N(C)C(=O)[C@@H]2CCCN2C(=O)[C@H](C)O)N(C)C(=O)[C@@H]2CCCN2C(=O)[C@H](CC(C)C)NC(=O)C(C)NC(=O)OCc2ccccc2)cc1 (some centres undefined) (Cbz-[ξA]LP[NMeY](Me)-{Ethylenediamine-ξNMeL-Pro-Lac})	> 100	> 100	> 100	> 100	> 100	> 100	> 100	> 100	> 100	> 100	> 100	> 100	> 100	> 100	> 100	> 100	> 100
Cc1cccc(NC(=O)O/N=C(\Cl)C(C)C)c1	4.98	31.7	33.8	38.9	32.1	26.9	29.6	33	28	3.6	5.63	20.3	32.9	36	40.9	11.1	3.9
c1ccc2c(c1)nn1c3ccc4nonc4c3[n-][n+]21	> 100	> 100	> 100	> 100	> 100	> 100	> 100	> 100	> 100	> 100	> 100	> 100	> 100	> 100	> 100	> 100	> 100
CN(C)CCNCc1ccc2c(-c3ccccc3)nc3cc(Cl)c(Cl)cc3n12	23.2	21.9	5.83	28.9	27.7	10	17.7	23.3	19.1	28.3	21.6	14.4	16.4	24.7	24.3	30.2	29.4
C[C@@H](CC(=O)O)OC1OC(COC(=O)C(C)(C)C)C(OC(=O)C(C)(C)C)C(OC(=O)C(C)(C)C)C1OC(=O)C(C)(C)C (some centres undefined)	84.9	> 100	> 100	98.2	> 100	> 100	> 100	> 100	> 100	> 100	81.3	> 100	98.4	> 100	> 100	> 100	55.9
c1csc(-c2nccc3c2[nH]c2ccccc23)c1	48.1	32.2	39.6	> 100	34.9	36.1	62.4	63.9	20.8	46.3	51.5	32	31.4	34.4	49.2	84.9	51.5
CN(CCNC(=O)c1c[nH]c2c1ccc1ccccc12)CCNC(=O)c1c[nH]c2c1ccc1ccccc12	3.83	3.47	2.87	6.23	4.79	2.62	3.46	5.06	2.74	3.08	4.3	3.39	21.1	3.29	5.83	11.1	3.86
CNC(=O)N(CCC#N)CCN(C(=O)N(C)C)c1ccccc1	> 100	> 100	> 100	> 100	> 100	> 100	> 100	> 100	> 100	> 100	> 100	> 100	> 100	> 100	> 100	> 100	> 100
CC1=NN(c2nc(N)nc(CSc3cc(Cl)c(C)cc3S(N)(=O)=O)n2)C(C)(C)C1	> 10	> 10	> 10	> 10	> 10	> 10	> 10	> 10	> 10	> 10	> 10	> 10	> 10	> 10	> 10	> 10	> 10
O=C1NC(N2CCCC(CO)C2)=N/C1=C\c1ccccc1 (centres undefined)	> 100	> 100	> 100	> 100	> 100	> 100	> 100	> 100	> 100	> 100	> 100	> 100	> 100	> 100	> 100	> 100	> 100
O=C(/C=C/c1ccc(OCc2ccccc2)cc1)NCc1ccc(C(=O)NCCc2c[nH]c3ccccc23)cc1	> 100	> 100	> 100	29.9	17.2	24.9	51.7	> 100	> 100	> 100	> 100	11.2	> 58.6	> 100	87.6	> 100	> 100
O=C(O)c1nc2ccc(Cl)cc2[nH]c1=O	> 100	> 100	> 100	> 100	> 100	> 100	> 100	> 100	> 100	> 100	> 100	> 100	> 100	> 100	> 100	> 100	> 100
CNCCCNC(=S)Cn1cc(C)c(=O)[nH]c1=O	> 100	> 31.6	> 69	> 100	> 54.3	> 95.5	> 63.5	> 80.6	> 92.5	> 100	> 71.7	> 60.9	> 31.4	> 78.8	> 51.3	> 100	> 50
O=C(CC(O)(C(F)(F)F)C(F)(F)Cl)CC(O)(C(F)(F)F)C(F)(F)Cl (centres undefined)	> 10	> 10	> 10	> 10	7.91	6.58	> 10	> 10	> 10	> 10	> 10	> 10	4.35	> 10	> 10	> 10	> 10
Cc1csc(NNC(N)=O)n1	> 100	> 100	> 100	> 100	> 100	> 100	> 100	> 100	> 100	> 100	> 100	> 100	> 100	> 100	> 100	> 100	> 100
